For 35 compounds, EC50 results are on record in patent US9018208B2, “Heterocycles as potassium channel modulators” (Icagen Inc., priority 2007, dated 2015).

Structures are written as SMILES. pEC50: −log10 of the molar value.

The first assay relates to SH-SY5Y M-currents (KCNQ2, KCNQ3 and KCNQ5). As to the kind of experiment: SH-SY5Y native cell line FLIPR assay (voltage-sensitive dye DiBAC). The format is cell-based, mouse neuroblastoma, rat glioma hybrid cell line. To be noted: SH-SY5Y native cell line, FLIPR assay (Table 3); read-out: SH-SY5Y EC50. The essentials:
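Response is peak DiBAC fluorescence change, normalised to the maximum from a positive control agent, sampled every 30 s over 25 min. Before compound addition, SH-SY5Y cells differentiated with PGE1 plus isomethylbutylxanthine were dye-loaded for 1 h in EBSS with […] DiBAC.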
With `O=C(Nc1nc2ccc(F)cn2c1-c1nc2ccccc2s1)C1CCCC1` [Compound 378, N-(3-(benzo[d]thiazol-2-yl)-6-fluoroimidazo[1,2-a]pyridin-2-yl)cyclopentanecarboxamide], the pEC50 was 5.00 to 5.52.
Regarding `O=C(Cc1ccc(F)cc1)Nc1nc2ccc(F)cn2c1-c1nc2ccccc2s1` [Compound 379, N-(3-(benzo[d]thiazol-2-yl)-6-fluoroimidazo[1,2-a]pyridin-2-yl)-2-(4-fluorophenyl)acetamide], the pEC50 was 5.52 to 6.30.
The same measure, in the same setting: the result for `O=C(CC1CCCC1)Nc1nc2ccc(F)cn2c1-c1nc2ccccc2s1` [Compound 380, N-(3-(benzo[d]thiazol-2-yl)-6-fluoroimidazo[1,2-a]pyridin-2-yl)-2-cyclopentylacetamide] reads 5.52 to 6.30.
For the compound `O=C(CC(F)(F)F)Nc1nc2ccc(F)cn2c1-c1nc2ccccc2s1` [Compound 381, N-(3-(benzo[d]thiazol-2-yl)-6-fluoroimidazo[1,2-a]pyridin-2-yl)-3,3,3-trifluoropropanamide], the pEC50 is 5.52 to 6.30.
With `Cc1ccc2nc(NC(=O)CC(C)(C)C)c(-c3nc4ccccc4s3)n2n1` [Compound 382, N-(3-(benzo[d]thiazol-2-yl)-6-methylimidazo[1,2-b]pyridazin-2-yl)-3,3-dimethylbutanamide], the pEC50 was 5.00 to 5.52.
On the same count and under the same terms, in the case of `CC(CC(=O)Nc1nc2ccc(F)cn2c1-c1nccs1)C(F)(F)F` (stereo not drawn) [Compound 383, 4,4,4-trifluoro-N-(6-fluoro-3-(thiazol-2-yl)imidazo[1,2-a]pyridin-2-yl)-3-methylbutanamide] it was 5.00 to 5.52; in that of `O=C(Cc1ccc(F)cc1)Nc1nc2ccc(F)cn2c1-c1nccs1` [Compound 384, N-(6-fluoro-3-(thiazol-2-yl)imidazo[1,2-a]pyridin-2-yl)-2-(4-fluorophenyl)acetamide], 5.52 to 6.30; in that of `Cc1ccc2nc(NC(=O)Cc3ccc(F)cc3)c(-c3nc4ccccc4s3)n2n1` [Compound 385, N-(3-(benzo[d]thiazol-2-yl)-6-methylimidazo[1,2-b]pyridazin-2-yl)-2-(4-fluorophenyl)acetamide], 5.00 to 5.52.
On the same count and under the same terms, in the case of `Cc1ccc2nc(NC(=O)CC(C)C(F)(F)F)c(-c3nc4ccccc4s3)n2n1` (stereo not drawn) [Compound 386, N-(3-(benzo[d]thiazol-2-yl)-6-methylimidazo[1,2-b]pyridazin-2-yl)-4,4,4-trifluoro-3-methylbutanamide] it was 5.00 to 5.52; in that of `Cc1ccc2nc(NC(=O)CC(C)(C)C)c(-c3nccs3)n2n1` [Compound 387, 3,3-dimethyl-N-(6-methyl-3-(thiazol-2-yl)imidazo[1,2-b]pyridazin-2-yl)butanamide], 5.00 to 5.52; in that of `Cc1ccc2nc(NC(=O)CC(C)C(F)(F)F)c(-c3nccs3)n2n1` (stereo not drawn) [Compound 388, 4,4,4-trifluoro-3-methyl-N-(6-methyl-3-(thiazol-2-yl)imidazo[1,2-b]pyridazin-2-yl)butan amide], 5.00 to 5.52.
The same measure, in the same setting: in the case of `Cc1ccc2nc(NC(=O)C3CCC(F)(F)CC3)c(-c3nccs3)n2n1` [Compound 389, 4,4-difluoro-N-(6-methyl-3-(thiazol-2-yl)imidazo[1,2-b]pyridazin-2-yl)cyclohexanecarboxamide] it was 5.00 to 5.52; in that of `Cc1ccc2nc(NC(=O)Cc3ccc(F)cc3)c(-c3nccs3)n2n1` [Compound 390, 2-(4-fluorophenyl)-N-(6-methyl-3-(thiazol-2-yl)imidazo[1,2-b]pyridazin-2-yl)acetamide], 5.00 to 5.52.
Turning to `O=C(Nc1nc2ccc(F)cn2c1-c1nccs1)C1CCC(F)(F)CC1` [Compound 391, 4,4-difluoro-N-(6-fluoro-3-(thiazol-2-yl)imidazo[1,2-a]pyridin-2-yl)cyclohexanecarboxamide], the pEC50 is more than 6.30.
The same measure, in the same setting: the result for `Cc1cccc2nc(NC(=O)CC(C)(C)C)c(-c3nc4ccccc4s3)n12` [Compound 392, N-(3-(benzo[d]thiazol-2-yl)-5-methylimidazo[1,2-a]pyridin-2-yl)-3,3-dimethylbutanamide] reads 5.00 to 5.52; that for `Cc1cccc2nc(NC(=O)Cc3ccc(F)cc3)c(-c3nc4ccccc4s3)n12` [Compound 393, N-(3-(benzo[d]thiazol-2-yl)-5-methylimidazo[1,2-a]pyridin-2-yl)-2-(4-fluorophenyl)acetamide], 5.52 to 6.30.
With `Cc1ccc2nc(NC(=O)CC(C)(C)C)c(-c3cc(C(F)(F)F)ccn3)n2n1` [Compound 394, 3,3-dimethyl-N-(6-methyl-3-(4-(trifluoromethyl)pyridin-2-yl)imidazo[1,2-b]pyridazin-2-yl)butanamide], the pEC50 is 5.00 to 5.52.
The same measure, in the same setting: the result for `Cc1ccc2nc(NC(=O)Cc3ccc(F)cc3)c(-c3cc(C(F)(F)F)ccn3)n2n1` [Compound 395, 2-(4-fluorophenyl)-N-(6-methyl-3-(4-(trifluoromethyl)pyridin-2-yl)imidazo[1,2-b]pyridazin-2-yl)acetamide] reads 5.00 to 5.52.
Still for that read-out and setting: in the case of `Cc1ccc2nc(NC(=O)CC(C)C(F)(F)F)c(-c3cc(C(F)(F)F)ccn3)n2n1` (stereo not drawn) [Compound 396, 4,4,4-trifluoro-3-methyl-N-(6-methyl-3-(4-(trifluoromethyl)pyridin-2-yl)imidazo[1,2-b]pyridazin-2-yl)butanamide] it was 5.00 to 5.52; in that of `Cc1ccc2nc(NC(=O)C3CCC(F)(F)CC3)c(-c3cc(C(F)(F)F)ccn3)n2n1` [Compound 397, 4,4-difluoro-N-(6-methyl-3-(4-(trifluoromethyl)pyridin-2-yl)imidazo[1,2-b]pyridazin-2-yl)cyclohexanecarboxamide], 5.00 to 5.52.
Same read-out and setting: the result for `CC(C)(C)CC(=O)Nc1nc2ccc(C(F)(F)F)cn2c1-c1cc(C(F)(F)F)ccn1` [Compound 398, 3,3-dimethyl-N-(6-(trifluoromethyl)-3-(4-(trifluoromethyl)pyridin-2-yl)imidazo[1,2-a]pyridin-2-yl)butanamide] reads more than 6.30; that for `CC(CC(=O)Nc1nc2ccc(C(F)(F)F)cn2c1-c1cc(C(F)(F)F)ccn1)C(F)(F)F` (stereo not drawn) [Compound 399, 4,4,4-trifluoro-3-methyl-N-(6-(trifluoromethyl)-3-(4-(trifluoromethyl)pyridin-2-yl)imidazo[1,2-a]pyridin-2-yl)butanamide], 5.52 to 6.30; that for `O=C(Cc1ccc(F)cc1)Nc1nc2ccc(C(F)(F)F)cn2c1-c1cc(C(F)(F)F)ccn1` [Compound 400, 2-(4-fluorophenyl)-N-(6-(trifluoromethyl)-3-(4-(trifluoromethyl)pyridin-2-yl)imidazo[1,2-a]pyridin-2-yl)acetamide], more than 6.30.
Consider `CC(CC(=O)Nc1nc2ccc(F)cn2c1-c1cc(C(F)(F)F)ccn1)C(F)(F)F` (stereo not drawn) [Compound 401, 4,4,4-trifluoro-N-(6-fluoro-3-(4-(trifluoromethyl)pyridin-2-yl)imidazo[1,2-a]pyridin-2-yl)-3-methylbutanamide], for which the pEC50 was 5.52 to 6.30.
The same measure, in the same setting: in the case of `O=C(Nc1nc2ccc(F)cn2c1-c1cc(C(F)(F)F)ccn1)C1CCC(F)(F)CC1` [Compound 402, 4,4-difluoro-N-(6-fluoro-3-(4-(trifluoromethyl)pyridin-2-yl)imidazo[1,2-a]pyridin-2-yl)cyclohexanecarboxamide] it was more than 6.30.
Still for that read-out and setting: in the case of `O=C(Cc1ccc(F)cc1)Nc1nc2ccccn2c1-c1cc(C(F)(F)F)ccn1` [Compound 403, 2-(4-fluorophenyl)-N-(3-(4-(trifluoromethyl)pyridin-2-yl)imidazo[1,2-a]pyridin-2-yl)acetamide] it was more than 6.30.
As to `CC(C)(C)CC(=O)Nc1nc2ccccn2c1-c1cc(C(F)(F)F)ccn1` [Compound 404, 3,3-dimethyl-N-(3-(4-(trifluoromethyl)pyridin-2-yl)imidazo[1,2-a]pyridin-2-yl)butanamide], the pEC50 is 5.52 to 6.30.
The same measure, in the same setting: the result for `CC(CC(=O)Nc1nc2ccccn2c1-c1cc(C(F)(F)F)ccn1)C(F)(F)F` (stereo not drawn) [Compound 405, 4,4,4-trifluoro-3-methyl-N-(3-(4-(trifluoromethyl)pyridin-2-yl)imidazo[1,2-a]pyridin-2-yl)butanamide] reads 5.52 to 6.30.
Same read-out and setting: the result for `CC(C)(C)CC(=O)Nc1nc2ccccn2c1-c1nccs1` [Compound 406, 3,3-dimethyl-N-(3-(thiazol-2-yl)imidazo[1,2-a]pyridin-2-yl)butanamide] reads 5.52 to 6.30.
The same measure, in the same setting: in the case of `O=C(Cc1ccc(F)cc1)Nc1nc2ccccn2c1-c1nccs1` [Compound 407, 2-(4-fluorophenyl)-N-(3-(thiazol-2-yl)imidazo[1,2-a]pyridin-2-yl)acetamide] it was 5.52 to 6.30.
Consider `CC(CC(=O)Nc1nc2ccccn2c1-c1nccs1)C(F)(F)F` (stereo not drawn) [Compound 408, 4,4,4-trifluoro-3-methyl-N-(3-(thiazol-2-yl)imidazo[1,2-a]pyridin-2-yl)butanamide], for which the pEC50 is 5.00 to 5.52.
On to `O=C(Nc1nc2ccccn2c1-c1nccs1)C1CCC(F)(F)CC1` [Compound 409, 4,4-difluoro-N-(3-(thiazol-2-yl)imidazo[1,2-a]pyridin-2-yl)cyclohexanecarboxamide], for which the pEC50 is 5.52 to 6.30.
Consider `O=C(Cc1ccc(F)cc1)Nc1nc2ccc(F)cn2c1-c1cc(C(F)(F)F)ccn1` [Compound 410, N-(6-fluoro-3-(4-(trifluoromethyl)pyridin-2-yl)imidazo[1,2-a]pyridin-2-yl)-2-(4-fluorophenyl)acetamide], for which the pEC50 is more than 6.30.
Turning to `O=C(Nc1nc2ccccn2c1-c1cc(C(F)(F)F)ccn1)C1CCC(F)(F)CC1` [Compound 411, 4,4-difluoro-N-(3-(4-(trifluoromethyl)pyridin-2-yl)imidazo[1,2-a]pyridin-2-yl)cyclohexanecarboxamide], the pEC50 was more than 6.30.
Turning to `O=C(Nc1nc2ccc(F)cn2c1-c1cc(C(F)(F)F)ccn1)C1CC1(F)F` (stereo not drawn) [Compound 412, 2,2-difluoro-N-(6-fluoro-3-(4-(trifluoromethyl)pyridin-2-yl)imidazo[1,2-a]pyridin-2-yl)cyclopropanecarboxamide], the pEC50 was 5.00 to 5.52.

The same assay, now with this note: read-out: SH-SY5Y_EC50.
`O=C(CC(F)(F)F)Nc1nc2ccc(F)cn2c1-c1nc2ccccc2s1` [Compound 381, N-(3-(benzo[d]thiazol-2-yl)-6-fluoroimidazo[1,2-a]pyridin-2-yl)-3,3,3-trifluoropropanamide]: the pEC50 was 5.67.
